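A five-concentration, 48-hour dose response in 96-well plates underlies each endpoint, interpolated linearly between surrounding concentrations. The concentration for 50% growth inhibition is given as GI50.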 Activity calls are given as the source filed them. No stated cut-off is given here; in the data, active = GI50 up to about 1.1 µM and inactive = higher.
Key:
Experiment in all cases: NCI-60 cell line screen, 48 h
KM12 = tested on: KM12
NCI-H522 = tested on: NCI-H522
NCI-H460 = tested on: NCI-H460
MDA-MB-435 = tested on: MDA-MB-435
UACC-257 = tested on: UACC-257
CAKI-1 = tested on: CAKI-1
NCI-H226 = tested on: NCI-H226
Hs-578T = tested on: Hs-578T
SF-268 = tested on: SF-268
K562 = tested on: K562
ACHN = tested on: ACHN
HCT-15 = tested on: HCT-15
SK-OV-3 = tested on: SK-OV-3
BT-549 = tested on: BT-549
OVCAR-5 = tested on: OVCAR-5
SW-620 = tested on: SW-620
LOX IMVI = tested on: LOX IMVI
SK-MEL-2 = tested on: SK-MEL-2
RXF 393 = tested on: RXF 393

C/C(=N\NC(=O)c1ccncc1)c1ccccc1Cl
GI50 (KM12): > 100 µM (inactive)
GI50 (NCI-H522): > 100 µM (inactive)
GI50 (NCI-H460): > 100 µM (inactive)
GI50 (MDA-MB-435): > 100 µM (inactive)
GI50 (UACC-257): > 100 µM (inactive)
GI50 (CAKI-1): > 100 µM (inactive)
GI50 (NCI-H226): > 100 µM (inactive)
GI50 (Hs-578T): > 100 µM (inactive)
GI50 (SF-268): > 100 µM (inactive)
GI50 (K562): > 100 µM (inactive)
GI50 (ACHN): > 100 µM (inactive)
GI50 (HCT-15): > 100 µM
GI50 (SK-OV-3): > 100 µM (inactive)
GI50 (BT-549): > 100 µM (inactive)
GI50 (OVCAR-5): > 100 µM (inactive)
GI50 (SW-620): > 100 µM (inactive)
GI50 (LOX IMVI): > 100 µM (inactive)
GI50 (SK-MEL-2): > 100 µM (inactive)
GI50 (RXF 393): > 100 µM (inactive)

COc1ccc2nc3n(c2c1)CCc1cc(OC)c(OC)cc1-3
GI50 (KM12): 30 µM (inactive)
GI50 (NCI-H522): 32.2 µM (inactive)
GI50 (NCI-H460): 50.5 µM (inactive)
GI50 (MDA-MB-435): 34.5 µM (inactive)
GI50 (UACC-257): 55 µM (inactive)
GI50 (CAKI-1): 42.4 µM (inactive)
GI50 (NCI-H226): 54.3 µM (inactive)
GI50 (Hs-578T): 85.7 µM (inactive)
GI50 (SF-268): > 100 µM (inactive)
GI50 (K562): 37.9 µM (inactive)
GI50 (ACHN): 81.5 µM (inactive)
GI50 (HCT-15): 33.5 µM
GI50 (SK-OV-3): > 100 µM (inactive)
GI50 (BT-549): 30 µM (inactive)
GI50 (OVCAR-5): > 100 µM (inactive)
GI50 (SW-620): 71.3 µM (inactive)
GI50 (LOX IMVI): 45.8 µM (inactive)
GI50 (SK-MEL-2): > 100 µM (inactive)
GI50 (RXF 393): > 100 µM (inactive)

C=C1C[C@H](O)[C@H]2C(C[Se]c3ccccc3)C(=O)O[C@@H]2[C@H]2[C@H](C)C(O)C[C@@H]12 (stereo partly specified)
GI50 (KM12): 40 µM (inactive)
GI50 (NCI-H522): 17.5 µM (inactive)
GI50 (NCI-H460): 34 µM (inactive)
GI50 (MDA-MB-435): 80.2 µM (inactive)
GI50 (UACC-257): 37.9 µM (inactive)
GI50 (CAKI-1): 71.6 µM (inactive)
GI50 (NCI-H226): 23.1 µM (inactive)
GI50 (Hs-578T): 32.8 µM (inactive)
GI50 (SF-268): 67.6 µM (inactive)
GI50 (K562): 36.6 µM (inactive)
GI50 (ACHN): 27.9 µM (inactive)
GI50 (HCT-15): 13.8 µM
GI50 (SK-OV-3): > 100 µM (inactive)
GI50 (BT-549): 28.8 µM (inactive)
GI50 (OVCAR-5): 20.6 µM (inactive)
GI50 (SW-620): 27.5 µM (inactive)
GI50 (LOX IMVI): 21.2 µM (inactive)
GI50 (SK-MEL-2): 66.2 µM (inactive)
GI50 (RXF 393): 13.1 µM (inactive)

CCOP(C)(=O)/C(Cc1ccc(OC)c(OC)c1)=N\O (stereo unspecified)
GI50 (KM12): > 100 µM (inactive)
GI50 (NCI-H522): > 100 µM (inactive)
GI50 (NCI-H460): > 100 µM (inactive)
GI50 (MDA-MB-435): > 100 µM (inactive)
GI50 (CAKI-1): > 100 µM (inactive)
GI50 (NCI-H226): > 100 µM (inactive)
GI50 (Hs-578T): > 100 µM (inactive)
GI50 (K562): > 100 µM (inactive)
GI50 (ACHN): > 100 µM (inactive)
GI50 (HCT-15): > 100 µM
GI50 (SK-OV-3): > 100 µM (inactive)
GI50 (BT-549): > 100 µM (inactive)
GI50 (OVCAR-5): > 100 µM (inactive)
GI50 (SW-620): > 100 µM (inactive)
GI50 (LOX IMVI): > 100 µM (inactive)
GI50 (SK-MEL-2): > 100 µM (inactive)
GI50 (RXF 393): > 100 µM (inactive)

CSC1=Nc2ccccc2-c2nc3ccccc3cc2C1
GI50 (KM12): 14.4 µM (inactive)
GI50 (NCI-H522): 69.2 µM (inactive)
GI50 (NCI-H460): > 100 µM (inactive)
GI50 (MDA-MB-435): > 100 µM (inactive)
GI50 (UACC-257): > 100 µM (inactive)
GI50 (CAKI-1): > 100 µM (inactive)
GI50 (NCI-H226): > 100 µM (inactive)
GI50 (Hs-578T): > 100 µM (inactive)
GI50 (SF-268): > 100 µM (inactive)
GI50 (K562): > 100 µM (inactive)
GI50 (ACHN): > 100 µM (inactive)
GI50 (HCT-15): > 100 µM
GI50 (SK-OV-3): > 100 µM (inactive)
GI50 (BT-549): > 100 µM (inactive)
GI50 (OVCAR-5): > 100 µM (inactive)
GI50 (LOX IMVI): > 100 µM (inactive)
GI50 (SK-MEL-2): > 100 µM (inactive)
GI50 (RXF 393): > 100 µM (inactive)

CN(C)c1ccc(/C=C(\C#N)C(N)=C(C#N)C#N)cc1
GI50 (KM12): > 100 µM (inactive)
GI50 (NCI-H522): > 100 µM (inactive)
GI50 (NCI-H460): > 100 µM (inactive)
GI50 (MDA-MB-435): > 100 µM (inactive)
GI50 (UACC-257): 97.9 µM (inactive)
GI50 (CAKI-1): > 100 µM (inactive)
GI50 (NCI-H226): > 100 µM (inactive)
GI50 (Hs-578T): > 100 µM (inactive)
GI50 (SF-268): > 100 µM (inactive)
GI50 (K562): > 100 µM (inactive)
GI50 (ACHN): > 100 µM (inactive)
GI50 (HCT-15): > 100 µM
GI50 (SK-OV-3): > 100 µM (inactive)
GI50 (BT-549): > 100 µM (inactive)
GI50 (OVCAR-5): > 100 µM (inactive)
GI50 (SW-620): > 100 µM (inactive)
GI50 (LOX IMVI): > 100 µM (inactive)
GI50 (RXF 393): > 100 µM (inactive)

O=C1CC2(CCN(CC3COc4ccccc4O3)CC2)C(=O)N1N1CCCCCC1 (stereo unspecified)
GI50 (NCI-H522): 78.5 µM (inactive)
GI50 (MDA-MB-435): 40 µM (inactive)
GI50 (UACC-257): 13.9 µM (inactive)
GI50 (CAKI-1): > 100 µM (inactive)
GI50 (NCI-H226): 51.9 µM (inactive)
GI50 (Hs-578T): 44.1 µM (inactive)
GI50 (SF-268): > 100 µM (inactive)
GI50 (K562): 15.6 µM (inactive)
GI50 (ACHN): 73.5 µM (inactive)
GI50 (HCT-15): > 100 µM
GI50 (SK-OV-3): > 100 µM (inactive)
GI50 (BT-549): 61.7 µM (inactive)
GI50 (OVCAR-5): 48.5 µM (inactive)
GI50 (LOX IMVI): 28.9 µM (inactive)
GI50 (SK-MEL-2): > 100 µM (inactive)
GI50 (RXF 393): 64.6 µM (inactive)

Cc1ccc(C2(C)CC/C(=N/N=C3/CCC(C)(c4ccc(C)c(C)c4)c4cc(C)c(C)cc43)c3cc(C)c(C)cc32)cc1C (stereo unspecified)
GI50 (KM12): > 100 µM (inactive)
GI50 (NCI-H522): > 100 µM (inactive)
GI50 (NCI-H460): > 100 µM (inactive)
GI50 (MDA-MB-435): > 100 µM (inactive)
GI50 (CAKI-1): > 100 µM (inactive)
GI50 (NCI-H226): > 100 µM (inactive)
GI50 (Hs-578T): > 100 µM (inactive)
GI50 (SF-268): > 100 µM (inactive)
GI50 (K562): > 100 µM (inactive)
GI50 (ACHN): > 100 µM (inactive)
GI50 (HCT-15): > 100 µM
GI50 (SK-OV-3): > 100 µM (inactive)
GI50 (BT-549): > 100 µM (inactive)
GI50 (OVCAR-5): > 100 µM (inactive)
GI50 (SW-620): > 100 µM (inactive)
GI50 (LOX IMVI): > 100 µM (inactive)
GI50 (SK-MEL-2): > 100 µM (inactive)
GI50 (RXF 393): > 100 µM (inactive)

CCOP(=O)(O)CN1CCNCCN(CP(=O)(O)OCC)CCNCC1
GI50 (KM12): > 100 µM (inactive)
GI50 (NCI-H522): > 100 µM (inactive)
GI50 (NCI-H460): > 100 µM (inactive)
GI50 (MDA-MB-435): > 100 µM (inactive)
GI50 (UACC-257): > 100 µM (inactive)
GI50 (CAKI-1): > 100 µM (inactive)
GI50 (NCI-H226): > 100 µM (inactive)
GI50 (Hs-578T): > 100 µM (inactive)
GI50 (K562): > 100 µM (inactive)
GI50 (ACHN): > 100 µM (inactive)
GI50 (HCT-15): > 100 µM
GI50 (SK-OV-3): > 100 µM (inactive)
GI50 (BT-549): > 100 µM (inactive)
GI50 (OVCAR-5): > 100 µM (inactive)
GI50 (SW-620): > 100 µM (inactive)
GI50 (LOX IMVI): > 100 µM (inactive)
GI50 (SK-MEL-2): > 100 µM (inactive)
GI50 (RXF 393): > 100 µM (inactive)

CSc1c(C(=O)Nc2ccccc2)c(N)nn1-c1ccccc1
GI50 (KM12): > 100 µM (inactive)
GI50 (NCI-H460): > 100 µM (inactive)
GI50 (MDA-MB-435): > 100 µM (inactive)
GI50 (UACC-257): > 100 µM (inactive)
GI50 (CAKI-1): > 100 µM (inactive)
GI50 (NCI-H226): > 100 µM (inactive)
GI50 (Hs-578T): > 100 µM (inactive)
GI50 (SF-268): > 100 µM (inactive)
GI50 (K562): > 100 µM (inactive)
GI50 (HCT-15): > 100 µM
GI50 (SK-OV-3): > 100 µM (inactive)
GI50 (BT-549): > 100 µM (inactive)
GI50 (OVCAR-5): > 100 µM (inactive)
GI50 (SW-620): > 100 µM (inactive)
GI50 (LOX IMVI): > 100 µM (inactive)
GI50 (SK-MEL-2): > 100 µM (inactive)
GI50 (RXF 393): 56.9 µM (inactive)

CN(C)CCCN1c2ccccc2CCc2cc([N+](=O)[O-])ccc21
GI50 (KM12): 17.5 µM (inactive)
GI50 (NCI-H522): 15.7 µM (inactive)
GI50 (NCI-H460): 15 µM (inactive)
GI50 (MDA-MB-435): 15.8 µM (inactive)
GI50 (UACC-257): 15 µM (inactive)
GI50 (CAKI-1): 15.5 µM (inactive)
GI50 (NCI-H226): 17.5 µM (inactive)
GI50 (Hs-578T): 16.2 µM (inactive)
GI50 (SF-268): 14.7 µM (inactive)
GI50 (K562): 16.9 µM (inactive)
GI50 (ACHN): 16.3 µM (inactive)
GI50 (HCT-15): 18.5 µM
GI50 (BT-549): 16.6 µM (inactive)
GI50 (OVCAR-5): 16.5 µM (inactive)
GI50 (LOX IMVI): 14.4 µM (inactive)
GI50 (SK-MEL-2): 20 µM (inactive)
GI50 (RXF 393): 12.6 µM (inactive)

— ChEMBL document CHEMBL1201862, “PubChem BioAssay data set” (2004)
